Source: US20230031406A1, “COMPOUNDS AND COMPOSITIONS FOR TREATING CONDITIONS ASSOCIATED WITH NLRP ACTIVITY” (Novartis AG, priority 2018, published 2023)
Like-named read-outs stand apart in the source and are kept apart here.

System: PMA-differentiated THP-1 cells
Test: IL-1β production in PMA-differentiated THP-1 cells stimulated with gramicidin (hTHP-1 assay containing 2% fetal bovine serum; Procedures 1 and 2)
Format: cell-based, human
Settings: 2% fetal bovine serum
How it was run: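 Human monocytic THP-1 cells, matured overnight with PMA at 20 ng/ml, are seeded in low-serum (2% FBS) RPMI. Test compounds, at final concentrations from 100 down to 0.0017 μM, precede gramicidin (5 μM, 2 h) by one hour. Released IL-1β is then determined by HTRF.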

[1] = Homo sapiens, THP-1, Table B3, hTHP-1 assay, class symbols, read-out: IC50
[2] = Homo sapiens, THP-1, Table B2, numeric bounds, read-out: hTHP-1 IC50
[3] = Homo sapiens, THP-1, Table B2, class symbols, read-out: hTHP-1 IC50
[4] = Table B3, hTHP-1 assay, class symbols, read-out: IC50
[5] = Homo sapiens, THP-1, Table B1, class symbols, read-out: Average IC50 of compounds in hTHP-1 assay: hTHP-1 IC50
[6] = Table B2, class symbols, read-out: hTHP-1 IC50
[7] = Table B1, class symbols, read-out: Average IC50 of compounds in hTHP-1 assay: hTHP-1 IC50

In the case of `C[C@](O)(CO)c1cc(F)c(S(N)(=O)=NC(=O)Nc2c3c(nc4c2CCC42CC2)CCC3)s1` (stereo partly drawn) [Example 608, 5-((S)-1,2-dihydroxypropan-2-yl)-3-fluoro-N′-((1′,5′,6′,7′-tetrahydro-2′H-spiro[cyclopropane-1,3′-dicyclopenta[b,e]pyridin]-8′-yl)carbamoyl)thiophene-2-sulfonimidamide], the IC50 [1] is reported as 0.04 to 0.2 µM.
`Cc1c(C(C)C)nc2c(c1NC(=O)N=S(N)(=O)c1ccn(C(C)C)n1)CCC2` (single isomer, unassigned) [Compound 644a, (S) or (R)-1-Isopropyl-N′-((2-isopropyl-3-methyl-6,7-dihydro-5H-cyclopenta[b]pyridin-4-yl)carbamoyl)-1H-pyrazole-3-sulfonimidamide] was tested, and the IC50 [2] was over 30 µM.
Compound `CCn1cc(F)c(S(N)(=O)=NC(=O)Nc2c3c(nc(C4CC4)c2C2CC2)CCC3)n1` (centres unmarked) [Example 618, N′-((2,3-dicyclopropyl-6,7-dihydro-5H-cyclopenta[b]pyridin-4-yl)carbamoyl)-1-ethyl-4-fluoro-1H-pyrazole-3-sulfonimidamide] has an IC50 [1] of 0.04 to 0.2 µM.
`Cc1c(C(C)C)nc2c(c1NC(=O)N=S(N)(=O)c1ccn(C(C)C)n1)CCC2` (single isomer, unassigned) [Compound 644b, (R) or (S)-1-Isopropyl-N′-((2-isopropyl-3-methyl-6,7-dihydro-5H-cyclopenta[b]pyridin-4-yl)carbamoyl)-1H-pyrazole-3-sulfonimidamide] showed an IC50 [3] of 1 to 5 µM.
With `CCn1ccc(S(N)(=O)=NC(=O)Nc2c(C)c(C(F)(F)F)nc3c2CCC3)n1` (single isomer, unassigned) [Example 691, (R) or (S)-1-Ethyl-N′-((3-methyl-2-(trifluoromethyl)-6,7-dihydro-5H-cyclopenta[b]pyridin-4-yl)carbamoyl)-1H-pyrazole-3-sulfonimidamide] the IC50 [4] was 0.2 to 1 µM.
In the case of `Cc1c(C(F)(F)F)nc2c(c1NC(=O)N=S(N)(=O)c1cc(C(C)(C)O)cs1)CCC2` (centres unmarked) [Compound 624, 4-(2-Hydroxypropan-2-yl)-N′-((3-methyl-2-(trifluoromethyl)-6,7-dihydro-5H-cyclopenta[b]pyridin-4-yl)carbamoyl)thiophene-2-sulfonimidamide], the IC50 [3] is reported as 0.04 to 0.2 µM.
`Cc1c(C2CC2)nc2c(c1NC(=O)N=S(N)(=O)c1cnc(C(C)(C)O)s1)CCC2` (centres unmarked) [Compound 124, N′-((2-cyclopropyl-3-methyl-6,7-dihydro-5H-cyclopenta[b]pyridin-4-yl)carbamoyl)-2-(2-hydroxypropan-2-yl)thiazole-5-sulfonimidamide] was tested, and the IC50 [5] was 0.2 to 1 µM.
`CCc1nc2c(c(NC(=O)N=S(N)(=O)c3cnc(C(C)(C)O)s3)c1C1CC1)CCC2` (single isomer, unassigned) [Compound 630a, (S) or (R)-N′-((3-cyclopropyl-2-ethyl-6,7-dihydro-5H-cyclopenta[b]pyridin-4-yl)carbamoyl)-2-(2-hydroxypropan-2-yl)thiazole-5-sulfonimidamide] was tested, and the IC50 [6] was 5 to 30 µM.
Compound `Cc1c(C2CCC2)nc2c(c1NC(=O)N=S(N)(=O)c1cc(C(C)(C)O)cs1)CCC2` (single isomer, unassigned) [Compound 658a, (S) or (R)-N′-((2-cyclobutyl-3-methyl-6,7-dihydro-5H-cyclopenta[b]pyridin-4-yl)carbamoyl)-4-(2-hydroxypropan-2-yl)thiophene-2-sulfonimidamide] has an IC50 [2] of over 30 µM.
Work on `CC(C)(O)c1csc(S(N)(=O)=NC(=O)Nc2c3c(nc4c2CCC42CC2)CCC3)c1` (centres unmarked) [Compound 114] yielded an IC50 [5] of 0.04 to 0.2 µM.
Compound `CC(C)n1nc(S(N)(=O)=NC(=O)Nc2c3c(nc4c2CCC4(C)C)CCC3)cc1CO` (centres unmarked) [Compound 652, N′-((3,3-dimethyl-1,2,3,5,6,7-hexahydrodicyclopenta[b,e]pyridin-8-yl)carbamoyl)-5-(hydroxymethyl)-1-isopropyl-1H-pyrazole-3-sulfonimidamide] has an IC50 [3] of 1 to 5 µM.
Work on `CC1CCc2c1nc1c(c2NC(=O)N=S(N)(=O)c2sc(C(C)(C)O)cc2F)CCC1` (single isomer, unassigned) [Compound 103ba, (R,R) or (R,S)-3-fluoro-5-(2-hydroxypropan-2-yl)-N′-((3-methyl-1,2,3,5,6,7-hexahydrodicyclo-penta[b,e]pyridin-8-yl)carbamoyl)thiophene-2-sulfonimidamide] yielded an IC50 [7] of 0.008 to 0.04 µM.
`CC(C)(O)c1cnc(S(N)(=O)=NC(=O)Nc2c3c(nc4c2CCC4O)CCC3)s1` (centres unmarked) [Example 635, N′-((3-hydroxy-1,2,3,5,6,7-hexahydrodicyclopenta[b,e]pyridin-8-yl)carbamoyl)-5-(2-hydroxypropan-2-yl)thiazole-2-sulfonimidamide] showed an IC50 (Homo sapiens, THP-1, Table B3, hTHP-1 assay, numeric values, read-out: IC50) of over 30 µM.
In the case of `CC(C)(O)c1cc(S(N)(=O)=NC(=O)Nc2c3c(nc4c2CCC4)CCC3)nn1-c1ccccc1` (single isomer, unassigned) [Compound 159b, (S) or (R)-N′-((1,2,3,5,6,7-hexahydrodicyclo-penta[b,e]pyridin-8-yl)carbamoyl)-5-(2-hydroxypropan-2-yl)-1-phenyl-1H-pyrazole-3-sulfonimidamide], the IC50 [7] is reported as 5 to 30 µM.
`CC(C)(O)c1cccc(S(N)(=O)=NC(=O)Nc2c3c(nc4c2CCC4)CCC3)c1` (single isomer, unassigned) [Compound 625b, (R) or (S)-N′-((1,2,3,5,6,7-hexahydrodicyclopenta [b,e]pyridin-8-yl)carbamoyl)-3-(2-hydroxypropan-2-yl)benzene-sulfonimidamide] showed an IC50 [3] of 1 to 5 µM.
`CCn1ccc(S(N)(=O)=NC(=O)Nc2c3c(nc(C4CC4)c2C2CC2)CCC3)n1` (single isomer, unassigned) [Example 700, (S) or (R)-N′-((2,3-dicyclopropyl-6,7-dihydro-5H-cyclopenta[b]pyridin-4-yl)carbamoyl)-1-ethyl-1H-pyrazole-3-sulfonimidamide] showed an IC50 [4] of 5 to 30 µM.
Compound `C[C@@H]1CCc2c1nc1c(c2NC(=O)N=S(N)(=O)c2cc(F)c(C(C)(C)O)s2)CCC1` (stereo partly drawn) [Compound 616, 4-Fluoro-5-(2-hydroxypropan-2-yl)-N′-(((R)-3-methyl-1,2,3,5,6,7-hexahydrodicyclopenta[b,e]pyridin-8-yl)carbamoyl)thiophene-2-sulfonimidamide] has an IC50 [3] of 0.04 to 0.2 µM.
`CCn1cc(F)c(S(N)(=O)=NC(=O)Nc2c3c(nc(C(F)(F)F)c2-c2cccc(F)c2)CCC3)n1` (single isomer, unassigned) [Example 782, (S) or (R)-1-ethyl-4-fluoro-N′-((3-(3-fluorophenyl)-2-(trifluoromethyl)-6,7-dihydro-5H-cyclopenta[b]pyridin-4-yl)carbamoyl)-1H-pyrazole-3-sulfonimidamide] gave an IC50 (Table B4, class symbols, read-out: hTHP-1 IC50) of 0.2 to 1 µM.
Work on `CCn1cc(Cl)c(S(N)(=O)=NC(=O)Nc2c(C)c(C(F)(F)F)nc3c2CCC3)n1` (single isomer, unassigned) [Compound 729a, (S) or (R)-4-Chloro-1-ethyl-N′-((3-methyl-2-(trifluoromethyl)-6,7-dihydro-5H-cyclopenta[b]pyridin-4-yl)carbamoyl)-1H-pyrazole-3-sulfonimidamide] yielded an IC50 [6] of 5 to 30 µM.
Work on `CC(C)c1cc(NC(=O)N=S(N)(=O)c2cc(C(C)(C)O)cs2)c2c(n1)CCC2` (centres unmarked) [Compound 182, 4-(2-hydroxypropan-2-yl)-N′-((2-isopropyl-6,7-dihydro-5H-cyclopenta[b]pyridin-4-yl)carbamoyl)thiophene-2-sulfonimidamide] yielded an IC50 (Homo sapiens, THP-1, Table B1, numeric bounds, read-out: Average IC50 of compounds in hTHP-1 assay: hTHP-1 IC50) of over 14 µM.
In the case of `NS(=O)(=NC(=O)Nc1c2c(nc(C3CC3)c1C1CC1)CCC2)c1ccn(C(F)F)n1` (centres unmarked) [Example 571, N′-((2,3-dicyclopropyl-6,7-dihydro-5H-cyclopenta[b]pyridin-4-yl)calbamoyl)-1-(difluoromethyl)-1H-pymzole-3-sulfonimidamide], the IC50 [1] is reported as 1 to 5 µM.
Compound `C[C@@H]1CCc2c1nc1c(c2NC(=O)N=S(N)(=O)c2ccn(C(C)(F)F)n2)CCC1` (single isomer, unassigned) [Compound 723b, (R) or (S)-1-(1,1-Difluoroethyl)-N′-(((R)-3-methyl-1,2,3,5,6,7-hexahydrodicyclopenta [b,e]pyridin-8-yl)carbamoyl)-1H-pyrazole-3-sulfonimidamide] has an IC50 [6] of 0.04 to 0.2 µM.
`Cc1c(C2CCC2)nc2c(c1NC(=O)N=S(N)(=O)c1cnc(C(C)(C)O)s1)CCC2` (centres unmarked) [Compound 649, N′-((2-cyclobutyl-3-methyl-6,7-dihydo-5H-cyclopenta[b]pyridin-4-yl)carbamoyl)-2-(2-hydroxypropan-2-yl)thiazole-5-sulfonimidamide] gave an IC50 [3] of 5 to 30 µM.
`CC1(C)CCc2c1nc1c(c2NC(=O)N=S(N)(=O)c2cc([C@@](C)(O)CO)cs2)CCC1` (stereo partly drawn) [Example 624, 4-((R)-1,2-dihydroxypropan-2-yl)-N′-((3,3-dimethyl-1,2,3,5,6,7-hexahydrodicyclopenta[b,e]pyridin-8-yl)carbamoyl)thiophene-2-sulfonimidamide] showed an IC50 [1] of 0.2 to 1 µM.
With `CC1CCc2c1nc1c(c2NC(=O)N=S(N)(=O)c2cc(C(C)(C)O)cs2)CCC1` (single isomer, unassigned) [Compound 141ab, (R,S) or (R,R)-4-(2-hydroxypropan-2-yl)-N′-((3-methyl-1,2,3,5,6,7-hexahydro-dicyclopenta[b,e]pyridin-8-yl)carbamoyl)thiophene-2-sulfonimidamide] the IC50 [5] was 0.2 to 1 µM.
`Cc1sc(S(N)(=O)=NC(=O)Nc2c3c(nc4c2CCC4(C)C)CCC3)cc1C(C)(C)O` (single isomer, unassigned) [Compound 169b, (R) or (S)-N′-((3,3-dimethyl-1,2,3,5,6,7-hexahydro-dicyclopenta[b,e]pyridin-8-yl)carbamoyl)-4-(2-hydroxypropan-2-yl)-5-mehtylthiophene-2-sulfonimidamide] gave an IC50 [7] of 0.04 to 0.2 µM.
